Test results reported in patent US20210220340A1, “COMPOSITION FOR PREVENTION OR TREATMENT OF NEURODEGENERATIVE DISEASE” (THE ASAN FOUNDATION, priority 2018, published 2021).

Legend:
[1] = tested on: G93A SOD-1; experiment: G93A SOD-1 accumulation on AMX treatment (western blotting); format: cell-based
Method: Each type of cell was cultured under the culture conditions, a cell culture was restored, followed by preparing a particulate fraction in a 50 mM Tris buffer. Proteins obtained from the cell culture developed in a SDS polyacrylamide gel, transferred to an immobilon-P membrane (Millipore, USA), and reacted with antibodies overnight. Next day, western blots were washed, reacted with peroxidase-linked secondary antibodies at room temperature for 1 hour, followed by staining bands with 4-chloro-1-naphthol.
FIG. 16 is a graph representing the percent activity (% activity) according to the concentrations of finally selected amlexanox (AMX) for various PDE isoforms, and FIGS. 17 and 18 show western blotting images representing the amyloid beta expression pattern and G93A SOD-1 and P301L tau expression when amyloid beta-accumulated pericytes and astrocytes are treated with the finally selected amlexanox (AMX).

[2] = tested on: mouse pericytes; experiment: Lysosome pH in bafilomycin A1-treated pericytes (LysoSensor, confocal microscope); format: cell-based; settings: cells alkalized by bafilomycin A1
Source text: A system that can visualize changes in intracellular lysosome pH with LysoSensor, which is a pH-sensitive lysosomal dye, in mouse pericytes using a confocal microscope was established (refer to Example 6) to observe whether amlexanox (AMX) is involved in the pH change of lysosomes in cells.
FIG. 19 is a set of time-dependent confocal microscope images (left) of mouse pericytes when being treated with Bafilomycin A1, which is a vATPase inhibitor, and then stained with LysoSensor, and quantified data (right) thereof.
Here, the images on the left side of FIG. 19 are obtained by treating mouse pericytes with bafilomycin A1, which is a vATPase inhibitor, and analyzing the cells using LysoSensor over time by a confocal microscope (top), and by treating the bafilomycin A1-treated mouse pericytes with the finally selected amlexanox (AMX) and analyzing the cells using LysoSensor over time by a confocal microscope (bottom).

[3] = tested on: mouse pericytes; experiment: Zinc concentration in pericytes (Zinpyr-1 fluorescence); format: cell-based
Source text: FIG. 20 is a set of confocal microscope images of groups of mouse pericytes, which are not treated (CTL) or treated with finally-selected amlexanox (AMX) (PDEi), in which, to measure a zinc concentration, fluorescence intensity was detected by treating the cells with a fluorescent dye (Zinpyr-1) for detecting zinc ions.

[4] = tested on: G93A SOD-1 mice; experiment: Survival rate and motor behaviour in Lou Gehrig's disease animal model; format: in vivo, mouse
Source text: G93A SOD-1 mice in which a mutant protein of the ALS-related gene SOD-1 (the expression of an amino acid at codon 93, in which glycine is substituted with alanine) of a human were used as Lou Gehrig's disease animal models. The G93A SOD-1 mice were purchased by the Jackson Laboratory (USA).
In the animal models of Lou Gehrig's disease, spinal motor neuron death occurs, causing limb paralysis at one or both sides. The clinical scoring system was differentiated using the following neurological scoring system.
The mice were euthanized at 0 points (Weydt et al. 2003). In the Lou Gehrig's disease animal models, which is one of the neurodegenerative disease models, a vehicle or amlexanox (AMX) was intraperitoneally administered at 2.5 mg/kg once daily for 5 days, and then a survival rate was measured through a behavioral experiment.
The behavioral experiment was performed on each of the AMX-administered group and the control (Veh) once or twice a week before symptoms occur until death. A method of gradually increasing a speed from 4 rpm to 40 rpm and a method of exercising at a constant speed of 15 rpm for 10 minutes were selected. The time to fall off from a rod was recorded to analyze the difference between the AMX-administered group and the control group.
Changes in survival rate were confirmed by intraperitoneal injection into G93A-SOD mice daily at various AMX concentrations.

[5] = tested on: astrocytes; experiment: H2O2 oxidative damage cell death in astrocytes (LDH method); format: cell-based; settings: H2O2, after 24 hours
Method: For astrocyte culture, first, cerebral cortices (neocortices) were dissociated from murine fetuses (3 weeks old), and the obtained cortical tissue was divided into single cells. […] New cells were cultured and used each time without passaging.
Specifically, cell death caused by oxidative damage was induced by injecting H2O2 into astrocytes, a cell culture model similar to the animal model with a neurodegenerative disease such as Alzheimer's disease or Lou Gehrig's disease was manufactured. To confirm the cell protective effect of amlexanox (AMX) in the cell model manufactured as described above, an untreated H2O2 control and an experimental group produced by administering amlexanox (AMX) into the untreated H2O2 control were prepared, and after 24 hours, cell death was quantitatively assessed by a LDH method.

[6] = G93A-SOD mice, AMX at various concentrations, compared with untreated control

## CC(C)c1ccc2oc3nc(N)c(C(=O)O)cc3c(=O)c2c1 [amlexanox, 2-amino-7-isopropyl-5-oxo-5H-[1]benzopyrano[2,3-b] pyridine-3-carboxylic acid]
[1]
  accumulation of toxic protein G93A SOD-1: reduced
[2]
  time to restore (acidify) the lysosome pH environment to the original state: ≤ 60 minutes
[3]
  concentration of zinc in the cell: restored and increased to a normal level
[4]; G93A SOD-1 mice, 2.5 mg/kg intraperitoneal once daily 5 days a week from week 10
  survival rate: 130.2 ± 2.0 days
[4]; [6]
  onset of ataxia: slower
  progression of ataxia: reduced
[4]; G93A-SOD mice, daily intraperitoneal injection at various AMX concentrations, compared with Veh group
  survival rate: concentration-dependently increased
[5]
  cell death: up to 40%
